In patent US8389539B2, “Azacyclic derivatives” (Hoffman-La Roche Inc., priority 2009, dated 2013):

Target: T1, human HSL (Homo sapiens, UniProt Q05469)
T1 construct: overlapping PCR to generate a full length human HSL ORF with a 3′-His6 tag; His6 (C); made in house; host or cells: High 5 insect cells (baculovirus, pFast-BAC)
T1 sequence (Q05469 1-1076): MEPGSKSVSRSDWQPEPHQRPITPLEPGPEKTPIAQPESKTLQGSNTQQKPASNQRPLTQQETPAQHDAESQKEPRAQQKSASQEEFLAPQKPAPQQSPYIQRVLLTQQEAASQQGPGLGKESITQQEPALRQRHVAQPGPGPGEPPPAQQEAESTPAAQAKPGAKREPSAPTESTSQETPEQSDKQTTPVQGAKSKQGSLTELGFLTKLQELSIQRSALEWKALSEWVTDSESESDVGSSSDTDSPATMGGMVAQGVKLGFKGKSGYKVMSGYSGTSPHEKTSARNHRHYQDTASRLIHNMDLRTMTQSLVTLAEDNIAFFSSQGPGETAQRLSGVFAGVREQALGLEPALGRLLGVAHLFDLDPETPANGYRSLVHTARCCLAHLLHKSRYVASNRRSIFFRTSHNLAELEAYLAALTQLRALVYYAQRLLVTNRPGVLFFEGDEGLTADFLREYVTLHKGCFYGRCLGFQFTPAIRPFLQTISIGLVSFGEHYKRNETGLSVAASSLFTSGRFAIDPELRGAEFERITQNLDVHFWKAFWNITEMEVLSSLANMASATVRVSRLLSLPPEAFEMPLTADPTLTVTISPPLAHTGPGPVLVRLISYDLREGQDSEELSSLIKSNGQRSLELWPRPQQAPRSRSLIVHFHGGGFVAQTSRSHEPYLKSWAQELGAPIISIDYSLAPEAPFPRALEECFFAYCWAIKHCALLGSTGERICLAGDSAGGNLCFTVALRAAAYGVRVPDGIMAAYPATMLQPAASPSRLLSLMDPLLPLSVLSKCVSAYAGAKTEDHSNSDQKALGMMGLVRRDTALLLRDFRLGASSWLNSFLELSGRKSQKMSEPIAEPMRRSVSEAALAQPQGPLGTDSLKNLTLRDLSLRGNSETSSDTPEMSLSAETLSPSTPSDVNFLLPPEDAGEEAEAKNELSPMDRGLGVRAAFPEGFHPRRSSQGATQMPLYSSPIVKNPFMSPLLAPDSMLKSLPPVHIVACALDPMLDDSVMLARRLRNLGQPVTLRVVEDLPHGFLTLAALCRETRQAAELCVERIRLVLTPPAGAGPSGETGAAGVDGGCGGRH
Assay: Human Hormone-Sensitive Lipase (HSL) enzyme inhibition assay (colorimetric, DMPT substrate)
Format: biochemical
Conditions: human full length HSL-His6, 2,3-dimercapto-1-propanol tributyrate substrate, 37° C. 20 minutes, absorbance at 405 nm; read-out: HSL hum IC50
Description: 1) Cloning: cDNA was prepared from commercial human brain polyA+ RNA and used as a template in overlapping PCR to generate a full length human HSL ORF with a 3′-His6 tag. This full length insert was cloned into the pFast-BAC vector and the DNA-sequence of several single clones was verified. DNA from a correct full length clone with the 3′His6 tag was used to transform the E. coli strain DH10BAC. Resulting bacmid DNA was used to generate a titered baculovirus stock for protein generation.
Cells were thawed. […] was done at 3×30 sec., Lubrol PX was added to 0.2% final concentration followed by stirring for 15 min. at 4° C. and centrifugation at 25 k×g, 60 min., 4° C. […] Supernatant was removed, the resin washed in the centrifuge vessel using 5 volumes of Base Buffer containing 0.2% Lubrol PX. Centrifugation was done again, then the supernatant discarded. The resin was poured onto a 0.8 μm membrane in a disposable filter unit (Nalge 450-0080), and washed with 5 volumes of Base Buffer containing 0.2% Lubrol PX. It was then washed with 30 volumes of Base Buffer containing 60 mM imidazole pH 7.5 at 4° C. The protein was eluated with 5 volumes of 25 mM Tris-Cl, 300 mM NaCl, 200 mM imidazole, 10 mM 2-mercaptoethanol, pH 7.5 at 4° C. by tumbling resin with buffer end-over-end, 30 min., 4° C. The resin was captured on a 0.2 μm membrane disposable filter unit (Millipore SCGP U02 RE) and the eluate collected in the reservoir. The eluate was concentrated using a 30 k MWCO centrifugal filter device (Sartorius Vivascience Vivacell 100, VC1022), to 20 ml. It was then dialyzed overnight at 4° C., two times against 2 L of 10% glycerol, 25 mM Tris-Cl, 300 mM NaCl, 0.2 mM EDTA, 0.2 mM DTT, pH 7.5 at 4° C. The protein was filtered using a 0.22 μm disposable filter unit (Millipore SCGP00525). The protein concentration was calculated from absorbance at 280 nm, using 280=0.67 cm-1 mg-1. […] The protein was stored at −80° C.
Human Hormone-Sensitive Lipase (HSL) Enzyme Inhibition Assay:
HSL enzyme activity was measured by a colorimetric assay using 2,3-dimercapto-1-propanol tributyrate (Aldrich, St. Louis, Mo.) as a substrate. Typically, 1.5 mM 2,3-dimercapto-1-propanol tributyrate (DMPT) in 100 mM MOPS, pH 7.2, 0.2 mg/ml fatty acid-free BSA was prepared by sonication at 4° C. to homogenous suspension. Test compounds (2 mM stock in DMSO) were diluted 3 fold in series in DMSO. Compound solutions were diluted 24 fold in 1.5 mM DMPT containing solution and 18 ul per well was added to 384-well microplates (Corning Costar). Twelve microliters per well of human HSL (15 ug/ml) was added and the reaction mixture was incubated at 37° C. for 20 minutes. Six microliters of 12 mM dithio-bis-(2-nitrobenzoic acid) (DTNB) in DMSO plus 1.2% SDS and 0.6% Triton X-100 were added and the mixture was incubated at room temperature for 15 minutes. Product production was monitored by reading absorbance at 405 nm on an Envision Reader (PerkinElmer Life and Analytical Sciences, Shelton, Conn.).

Compound	IC50
O=C(CCN1CCC2(CC1)CCN(c1ccc(C3CC3)cc1)C2=O)Nc1ccc(F)cc1 [Example 20, 3-[2-(4-Cyclopropyl-phenyl)-1-oxo-2,8-diaza-spiro[4.5]dec-8-yl]-N-(4-fluoro-phenyl)-propionamide]	60 nM
CC(C(=O)Nc1ccc(F)cc1)N1CCC2(CCN(c3ccc(C4CC4)cc3)C2=O)CC1 (stereo not shown) [Example 25, 2-[2-(4-Cyclopropyl-phenyl)-1-oxo-2,8-diaza-spiro[4.5]dec-8-yl]-N-(4-fluoro-phenyl)-propionamide]	40 nM
O=C1N(c2ccc(CC(F)(F)F)cc2)CCC12CCN(CC(O)c1ccc(Cl)cc1Cl)CC2 (stereo not shown) [Example 46, 8-[2-(2,4-Dichloro-phenyl)-2-hydroxy-ethyl]-2-[4-(2,2,2-trifluoro-ethyl)-phenyl]-2,8-diaza-spiro[4.5]decan-1-one]	19 nM
O=C1N(c2ccc(OCC(F)(F)F)cc2)CCC12CCN(CC(O)c1c(F)cccc1Cl)CC2 (stereo not shown) [Example 47, 8-[2-(2-Chloro-6-fluoro-phenyl)-2-hydroxy-ethyl]-2-[4-(2,2,2-trifluoro-ethoxy)-phenyl]-2,8-diaza-spiro[4.5]decan-1-one]	35 nM
O=C1N(c2ccc(C3CC3)cc2)CCC12CCN(CCc1ccccc1)CC2 [Example 2, 2-(4-Cyclopropyl-phenyl)-8-phenethyl-2,8-diaza-spiro[4.5]decan-1-one]	70 nM
O=C1N(c2ccc(C3CC3)cc2)CCC12CCN(CCCc1ccccc1)CC2 [Example 1, 2-(4-Cyclopropyl-phenyl)-8-(3-phenyl-propyl)-2,8-diaza-spiro[4.5]decan-1-one]	240 nM
CCC(c1ccccc1)N1CCC2(CCN(c3ccc(C4CC4)cc3)C2=O)CC1 (stereo not shown) [Example 7, 2-(4-Cyclopropyl-phenyl)-8-(1-phenyl-propyl)-2,8-diaza-spiro[4.5]decan-1-one]	30 nM
CN(C(=O)CN1CCC2(CC1)CCN(c1ccc(C3CC3)cc1)C2=O)C1CCCCC1 [Example 16, N-Cyclohexyl-2-[2-(4-cyclopropyl-phenyl)-1-oxo-2,8-diaza-spiro[4.5]dec-8-yl]-N-methyl-acetamide]	60 nM
O=C1N(c2ccc(C3CC3)cc2)CCC12CCN(Cc1ccc(C(F)(F)F)cc1)CC2 [Example 3, 2-(4-Cyclopropyl-phenyl)-8-(4-trifluoromethyl-benzyl)-2,8-diaza-spiro[4.5]decan-1-one]	360 nM
O=C1N(c2ccc(C3CC3)cc2)CCC12CCN(C[C@H](O)c1ccccc1)CC2 [Example 33, 2-(4-Cyclopropyl-phenyl)-8-((R)-2-hydroxy-2-phenyl-ethyl)-2,8-diaza-spiro[4.5]decan-1-one]	40 nM
C[C@@H](Oc1ccc(N2CCC3(CCN(CC(O)c4c(F)cccc4Cl)CC3)C2=O)cn1)C(F)(F)F (stereo partly drawn) [Example 49, 8-[2-(2-Chloro-6-fluoro-phenyl)-2-hydroxy-ethyl]-2-[6-((R)-2,2,2-trifluoro-1-methyl-ethoxy)-pyridin-3-yl]-2,8-diaza-spiro[4.5]decan-1-one]	42 nM
O=C(CN1CCC2(CC1)CCN(c1ccc(C3CC3)cc1)C2=O)N1CCCC1 [Example 14, 2-(4-Cyclopropyl-phenyl)-8-(2-oxo-2-pyrrolidin-1-yl-ethyl)-2,8-diaza-spiro[4.5]decan-1-one]	220 nM
C[C@@H](Oc1ccc(N2CCC3(CCN(CC(O)c4c(F)cccc4Cl)CC3)C2=O)cc1)C(F)(F)F (stereo partly drawn) [Example 48, 8-[2-(2-Chloro-6-fluoro-phenyl)-2-hydroxy-ethyl]-2-[4-((R)-2,2,2-trifluoro-1-methyl-ethoxy)-phenyl]-2,8-diaza-spiro[4.5]decan-1-one]	23 nM
C[C@H](Oc1ccc(N2CCC3(CCN(CC(O)c4c(F)cccc4Cl)CC3)C2=O)cc1)C(F)(F)F (stereo partly drawn) [Example 54, 8-[2-(2-Chloro-6-fluoro-phenyl)-2-hydroxy-ethyl]-2-[4-((S)-2,2,2-trifluoro-1-methyl-ethoxy)-phenyl]-2,8-diaza-spiro[4.5]decan-1-one]	29 nM
COCCCNC(=O)CN1CCC2(CC1)CCN(c1ccc(C3CC3)cc1)C2=O [Example 17, 2-[2-(4-Cyclopropyl-phenyl)-1-oxo-2,8-diaza-spiro[4.5]dec-8-yl]-N-(3-methoxy-propyl)-acetamide]	710 nM
CCc1ccc(N2CCC3(CCN(CC(=O)c4ccc(Cl)cc4Cl)CC3)C2=O)cc1 [Example 43, 8-[2-(2,4-Dichloro-phenyl)-2-oxo-ethyl]-2-(4-ethyl-phenyl)-2,8-diaza-spiro[4.5]decan-1-one]	36 nM
O=C1N(c2ccc(C3CC3)cc2)CCC12CCN(CC(O)c1ccccc1)CC2 (stereo not shown) [Example 23, 2-(4-Cyclopropyl-phenyl)-8-(2-hydroxy-2-phenyl-ethyl)-2,8-diaza-spiro[4.5]decan-1-one]	70 nM
CCCCNC(=O)C(C(C)C)N1CCC2(CCN(c3ccc(C4CC4)cc3)C2=O)CC1 (stereo not shown) [Example 31, N-Butyl-2-[2-(4-cyclopropyl-phenyl)-1-oxo-2,8-diaza-spiro[4.5]dec-8-yl]-3-methyl-butyramide]	20 nM
C[C@@H](Oc1ccc(N2CCC3(CCN(CC(O)c4ccc(Cl)cc4Cl)CC3)C2=O)cc1)C(F)(F)F (stereo partly drawn) [Example 51, 8-[2-(2,4-Dichloro-phenyl)-2-hydroxy-ethyl]-2-[4-((R)-2,2,2-trifluoro-1-methyl-ethoxy)-phenyl]-2,8-diaza-spiro[4.5]decan-1-one]	22 nM
CCC(C(=O)Nc1ccc(F)cc1)N1CCC2(CCN(c3ccc(C4CC4)cc3)C2=O)CC1 (stereo not shown) [Example 26, 2-[2-(4-Cyclopropyl-phenyl)-1-oxo-2,8-diaza-spiro[4.5]dec-8-yl]-N-(4-fluoro-phenyl)-butyramide]	50 nM
O=C1N(c2ccc(C3CC3)cc2)CCC12CCN(C[C@H](O)c1ccc(F)cc1)CC2 [Example 35, 2-(4-Cyclopropyl-phenyl)-8-[(R)-2-(4-fluoro-phenyl)-2-hydroxy-ethyl]-2,8-diaza-spiro[4.5]decan-1-one]	20 nM
CCCCNC(=O)C(CC)N1CCC2(CCN(c3ccc(C4CC4)cc3)C2=O)CC1 (stereo not shown) [Example 28, N-Butyl-2-[2-(4-cyclopropyl-phenyl)-1-oxo-2,8-diaza-spiro[4.5]dec-8-yl]-butyramide]	30 nM
